Measured values: ChEMBL document CHEMBL1697731, “Cheminformatics analysis of assertions mined from literature that describe drug-induced liver injury in different species” (Chem Res Toxicol, 2010)
*1 amine or outer side, *2 acyl side, *3 side chain or, on linkers, in order; H or OH if unused. Where a SMILES comes first, the peptide text is derived from it. Bridges are numbered along the chain shown (N, C = ends). [ ]: non-standard residue; d: D form. The star is where a group is joined. hTyr(3S-OH,4S-OH,3'-OSO3H) = N[C@H](C(=O)O)[C@H](O)[C@@H](O)c1ccc(O)c(OS(=O)(=O)O)c1; Orn(4R-OH,5R-OH) = O=C([C@H](C[C@@H](O)[C@@H](O)N[*:3])N[*:1])[*:2]; Pro(3S-OH,4S-Me) = C[C@H]1CN[C@H](C(=O)O)[C@H]1O; X1 = CCCCCOc1ccc(-c2cc(-c3ccc(C(=O)*)cc3)no2)cc1; Gln(3R-OH) = NC(=O)C[C@@H](O)[C@H](N)C(=O)O; Hyp = O=C(O)[C@@H]1C[C@@H](O)CN1

Legend:
Hepatotoxicity [1] = experiment: Literature-mined compound from Fourches et al multi-species drug-induced liver injury (DILI) dataset, effect in humans; details: human
Hepatotoxicity [2] = experiment: Literature-mined compound from Fourches et al multi-species drug-induced liver injury (DILI) dataset, effect in rodents; details: rodentia
Hepatotoxicity [3] = experiment: Literature-mined compound from Fourches et al multi-species drug-induced liver injury (DILI) dataset, effect in non-rodents

Row | Compound | Hepatotoxicity (Hepatotoxicity [1]) | Hepatotoxicity (Hepatotoxicity [2]) | Hepatotoxicity (Hepatotoxicity [3]) | Hepatotoxicity (Hepatotoxicity [1]; Liver) | Hepatotoxicity (Hepatotoxicity [2]; Liver) | Hepatotoxicity (Hepatotoxicity [3]; Liver)
1 | Cc1cc2c(C(C)C)c(O)c(O)c(C=O)c2c(O)c1-c1c(C)cc2c(C(C)C)c(O)c(O)c(C=O)c2c1O [GOSSYPOL] | drug-induced liver injury reported | drug-induced liver injury reported | no drug-induced liver injury reported |  |  | 
2 | C=C1/C(=C\C=C2/CCC[C@]3(C)[C@@H]([C@H](C)CCCC(C)(C)O)CC[C@@H]23)C[C@@H](O)C[C@@H]1O [CALCITRIOL] | drug-induced liver injury reported | drug-induced liver injury reported | no drug-induced liver injury reported |  |  | 
3 | CC(C)(Oc1ccc(C2CC2(Cl)Cl)cc1)C(=O)O (configuration not stated) [CIPROFIBRATE] | drug-induced liver injury reported | drug-induced liver injury reported | drug-induced liver injury reported |  |  | 
4 | FC(F)(F)C(F)(F)C(F)(F)C(F)(F)C(F)(F)C(F)(F)C(F)(F)C(F)(F)Br [PERFLUBRON] | drug-induced liver injury reported | no drug-induced liver injury reported | drug-induced liver injury reported |  |  | 
5 | CC1=C(/C=C/C(C)=C/C=C/C(C)=C/C(=O)Nc2ccc(O)cc2)C(C)(C)CCC1 [FENRETINIDE] | drug-induced liver injury reported | drug-induced liver injury reported | no drug-induced liver injury reported |  |  | 
6 | COC(=O)[C@H]1[C@H]2C[C@@H]3c4[nH]c5cc(OC)ccc5c4CCN3C[C@H]2C[C@@H](OC(=O)c2cc(OC)c(OC)c(OC)c2)[C@@H]1OC [RESERPINE] | no drug-induced liver injury reported | drug-induced liver injury reported | no drug-induced liver injury reported |  |  | 
7 | CN1C(C(=O)Nc2ccccn2)=C(O)c2ccccc2S1(=O)=O [PIROXICAM] | drug-induced liver injury reported | drug-induced liver injury reported | no drug-induced liver injury reported |  |  | 
8 | CN1CCN(CCCN2c3ccccc3Sc3ccccc32)CC1 [PERAZINE] | drug-induced liver injury reported | no drug-induced liver injury reported | no drug-induced liver injury reported |  |  | 
9 | COc1ccc(CN2CCNCC2)c(OC)c1OC [TRIMETAZIDINE] | drug-induced liver injury reported | drug-induced liver injury reported | no drug-induced liver injury reported |  |  | 
10 | COC(=O)[C@@H]1[C@H]2C[C@H]3c4[nH]c5ccccc5c4CCN3C[C@@H]2CC[C@@H]1O [YOHIMBINE] | no drug-induced liver injury reported | drug-induced liver injury reported | no drug-induced liver injury reported |  |  | 
11 | CCOC(=O)[C@@]1(CCCCCCOc2ccc(Cl)cc2)CO1 [ETOMOXIR] | drug-induced liver injury reported | drug-induced liver injury reported | drug-induced liver injury reported |  |  | 
12 | CCCCCOc1ccc(-c2cc(-c3ccc(C(=O)N[C@H]4C[C@@H](O)[C@@H](O)NC(=O)[C@@H]5[C@@H](O)[C@@H](C)CN5C(=O)[C@H]([C@H](O)CC(N)=O)NC(=O)[C@H]([C@H](O)[C@@H](O)c5ccc(O)c(OS(=O)(=O)O)c5)NC(=O)[C@@H]5C[C@@H](O)CN5C(=O)[C@H]([C@@H](C)O)NC4=O)cc3)no2)cc1 [MICAFUNGIN] (X1-[Orn(4R-OH,5R-OH)]T[Hyp][hTyr(3S-OH,4S-OH,3'-OSO3H)][Gln(3R-OH)][Pro(3S-OH,4S-Me)]; lactam 1-C) | drug-induced liver injury reported | no drug-induced liver injury reported | no drug-induced liver injury reported |  |  | 
13 | CN(C)CC/C=C1\c2ccccc2CSc2ccccc21 [DOTHIEPIN] | drug-induced liver injury reported | no drug-induced liver injury reported | no drug-induced liver injury reported |  |  | 
14 | Cc1cc(-c2ccc(/N=N/c3ccc4c(S(=O)(=O)[O-])cc(S(=O)(=O)[O-])c(N)c4c3O)c(C)c2)ccc1/N=N/c1ccc2c(S(=O)(=O)[O-])cc(S(=O)(=O)[O-])c(N)c2c1O.[Na+].[Na+].[Na+].[Na+] [EVANS BLUE] | no drug-induced liver injury reported | drug-induced liver injury reported | no drug-induced liver injury reported |  |  | 
15 | NC[C@@H]1O[C@H](O[C@H]2[C@@H](O)[C@H](O[C@@H]3[C@@H](O)[C@H](N)C[C@H](N)[C@H]3O[C@H]3O[C@H](CN)[C@@H](O)[C@H](O)[C@H]3N)O[C@@H]2CO)[C@H](N)[C@@H](O)[C@@H]1O [FRAMYCETIN] |  |  |  | no drug-induced liver injury reported | drug-induced liver injury reported | no drug-induced liver injury reported
16 | O=C(O)CC(O)(CC(=O)O)C(=O)O [CITRIC ACID] | no drug-induced liver injury reported | drug-induced liver injury reported | no drug-induced liver injury reported |  |  | 
17 | CC1(C)[C@@H](OC(=O)CCC(=O)O)CC[C@]2(C)[C@H]3C(=O)C=C4[C@@H]5C[C@@](C)(C(=O)O)CC[C@]5(C)CC[C@@]4(C)[C@]3(C)CC[C@@H]12 [CARBENOXOLONE] | no drug-induced liver injury reported | drug-induced liver injury reported | no drug-induced liver injury reported |  |  | 
18 | O=C(CO)[C@@H](O)[C@H](O)[C@H](O)CO [FRUCTOSE] | drug-induced liver injury reported | drug-induced liver injury reported | drug-induced liver injury reported |  |  | 
19 | O=C([O-])P(=O)([O-])[O-].[Na+].[Na+].[Na+] [FOSCARNET SODIUM] | no drug-induced liver injury reported | drug-induced liver injury reported | no drug-induced liver injury reported |  |  | 
20 | C=CCC1(CC(C)C)C(=O)NC(=O)NC1=O [BUTALBITAL] | drug-induced liver injury reported | no drug-induced liver injury reported | no drug-induced liver injury reported |  |  | 
21 | CCCc1nc(C(C)(C)O)c(C(=O)OCc2oc(=O)oc2C)n1Cc1ccc(-c2ccccc2-c2nnn[nH]2)cc1 [OLMESARTAN MEDOXOMIL] | no drug-induced liver injury reported | drug-induced liver injury reported | no drug-induced liver injury reported |  |  | 
22 | Cc1c(C)c2c(c(C)c1O)CCC(C)(COc1ccc(CC3SC(=O)NC3=O)cc1)O2 (configuration not stated) [TROGLITAZONE] | drug-induced liver injury reported | drug-induced liver injury reported | drug-induced liver injury reported |  |  | 
23 | CCOC(=O)[N-]c1cn(N2CCOCC2)n[o+]1 [MOLSIDOMINE] | drug-induced liver injury reported | drug-induced liver injury reported | no drug-induced liver injury reported |  |  | 
24 | Clc1ccc(COC(Cn2ccnc2)c2ccc(Cl)cc2Cl)cc1 (configuration not stated) [ECONAZOLE] | no drug-induced liver injury reported | drug-induced liver injury reported | no drug-induced liver injury reported |  |  | 
